According to patent publication US4431665A, “Acylated laidlomycin derivatives” (priority 1980, dated 1984):
Where two headings read alike, the source gives them in different places.

Columns and labels:
ruminants = conditions: in words; U.S. Pat. No. 3,794,732; cited from earlier work
Gram-positive bacteria = conditions: in words; J. Antibiotics 1974, 1976; cited from earlier work
[1] = test system: rumen microorganisms (mixed microbial population of rumen contents); assay: Enhancement of intraruminal propionic acid production, batch culture fermentation of rumen contents; type: cell-based, bovine (rumen-fistulated); conditions: for % Propionic Acid: 9 h, 39° C.
Procedure, shortened: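 Bovine rumen contents mixed 1:1 with buffer supplying mineral, energy and nitrogen sources, then incubated with test compounds (concentrations in μg/ml) for 9 hours at 39° C. Volatile fatty acids measured by gas-liquid chromatography; net production = post- minus pre-incubation concentration, expressed as molar percentage propionic acid.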

[2] = test system: rumen contents (lactic acid accumulation); assay: Inhibition of lactic acid accumulation, second batch culture fermentation of rumen contents with glucose; type: cell-based, bovine (rumen fistulated); conditions: for activity at 1.25 µg/mL: 1.25 μg/ml; for activity at 0.31 µg/mL: .31 μg/ml; for Accumulation of Lactic Acid - % of Control: Table 4, 360 min
Procedure, shortened: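 Bovine rumen contents mixed 1:1 with buffer containing 150 mM glucose and fermented 6 h at 39 °C. Lactic acid was quantified enzymatically through lactate dehydrogenase-driven NAD reduction, read as absorbance at 340 nm; compound concentrations in μg/ml.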

male, Swiss-Webster mice = assay: Acute oral toxicity (mortality, LD50) in mice; type: in vivo, mouse (Swiss-Webster); conditions: sesame oil, 21 days
Experimental: (§1) Five groups of male, Swiss-Webster mice (Simonsen), each mouse weighing about 25 grams, were dosed orally with 0.25 ml of a solution of laidlomycin butyrate in sesame oil. A control group of six mice received only sesame oil. The mice were observed daily for mortality for 21 days. From this information the LD50 as calculated to be more than 200 mg/kg.

[3] = Acute oral toxicity (mortality, LD50) in mice; type: in vivo, mouse (Swiss-Webster); conditions: mouse, in vivo, male Swiss-Webster mice, 21 days
Experimental: as §1

[4] = Table 3, 1.25 μg/ml, 0 μg/ml: 28.5
[5] = Table 3, 5 μg/ml, 0 μg/ml: 28.5
[6] = Table 3, 20 μg/ml, 0 μg/ml: 28.5
[7] = Table 3, .31 μg/ml, 0 μg/ml: 28.5
[8] = Bos taurus, 6 h, read-out: Accumulation of Lactic Acid - % of Control, Table 4, 6 h, 39° C.
[9] = in words, compared with laidlomycin or its sodium salt
[10] = Bos taurus, 6 h, read-out: Lactic Acid Accumulation (% of Control), Table 2, 6 h, 39° C.

In the case of monensin, the “increasing feed utilization in ruminants” value (ruminants) is given as “useful in increasing feed utilization in ruminants”.
For `CCC(=O)OC(C(C)C(=O)O)C(C)C1OC2(CCC(C)(C3CCC(C)(C4OC(C5OC(O)(CO)C(C)CC5C)CC4C)O3)O2)CC(O)C1C` (centres unmarked) [L., laidlomycin], the “growth inhibition of Gram-positive bacteria” value (Gram-positive bacteria) is listed as “inhibits the growth of some Gram-positive bacteria”, the “% Propionic Acid” value [1, 4] is listed as 36.0% and the “% Propionic Acid” value [1, 5] is listed as 39.8%. For the same molecule, the “% Propionic Acid” value [1, 6] was 43.2%, the “% Propionic Acid” value [1, 7] was 32.1% and the activity at 1.25 µg/mL [2, 8] was 83%. The activity at 0.31 µg/mL [2, 8] was 121%, the “Accumulation of Lactic Acid - % of Control” value ([2]; 5 μg/ml, 6 h, 39° C.) was 20 % of Control and the “Accumulation of Lactic Acid - % of Control” value ([2]; 20 μg/ml, 6 h, 39° C.) was 16 % of Control.
In the case of `CCCC(=O)OCC1(O)OC(C2CC(C)C(C3(C)CCC(C4(C)CCC5(CC(O)C(C)C(C(C)C(OC(=O)CC)C(C)C(=O)O)O5)O4)O3)O2)C(C)CC1C` (centres unmarked) [L. C4, monobutyrate of laidlomycin], the “% Propionic Acid” value ([1]; Table 1, 1.25 μg/ml, 0 μg/ml: 35.4) was 46.1%, the “% Propionic Acid” value ([1]; Table 1, 2.5 μg/ml, 0 μg/ml: 35.4) was 52.2% and the “% Propionic Acid” value ([1]; Table 1, 5 μg/ml, 0 μg/ml: 35.4) was 49.3%. For the same molecule, the “% Propionic Acid” value ([1]; Table 1, 10 μg/ml, 0 μg/ml: 35.4) was 53.9%, the “% Propionic Acid” value ([1]; Table 1, .31 μg/ml, 0 μg/ml: 35.4) was 43.6% and the “% Propionic Acid” value ([1]; Table 1, .62 μg/ml, 0 μg/ml: 35.4) was 46.4%. The “% Propionic Acid” value [1, 4] was 39.9%, the “% Propionic Acid” value [1, 5] was 43.7% and the “% Propionic Acid” value [1, 6] was 46.9%. The “% Propionic Acid” value [1, 7] was 35.5%, the “enhancement of propionic acid production (molar percentage of propionate)” value [1, 9] was “surprisingly increased potency” and the “No. Deaths/No. Mice” value (male, Swiss-Webster mice; 12.5 mg/kg) was 0/6. For the same molecule, the “No. Deaths/No. Mice” value (male, Swiss-Webster mice; 25 mg/kg) was 0/6, the “No. Deaths/No. Mice” value (male, Swiss-Webster mice; 50 mg/kg) was 0/6 and the “No. Deaths/No. Mice” value (male, Swiss-Webster mice; 100 mg/kg) was 0/6. The “No. Deaths/No. Mice” value (male, Swiss-Webster mice; 200 mg/kg) was 0/6, the LD50 at 504 h [3] was greater than 200 mg/kg and the activity at 1.25 µg/mL [2, 8] was 13%. It also gave an activity at 5 µg/mL ([2]; Bos taurus, 6 h, read-out: Accumulation of Lactic Acid - % of Control, Table 4, 5 μg/ml, 6 h, 39° C.) of 15%, an activity at 20 µg/mL ([2]; Bos taurus, 6 h, read-out: Accumulation of Lactic Acid - % of Control, Table 4, 20 μg/ml, 6 h, 39° C.) of 19% and an activity at 0.31 µg/mL [2, 8] of 38%. For the same molecule, the activity at 1.25 µg/mL [2, 10] was 8%, the activity at 2.5 µg/mL ([2]; Bos taurus, 6 h, read-out: Lactic Acid Accumulation (% of Control), Table 2, 2.5 μg/ml, 6 h, 39° C.) was 11% and the activity at 5 µg/mL ([2]; Bos taurus, 6 h, read-out: Lactic Acid Accumulation (% of Control), Table 2, 5 μg/ml, 6 h, 39° C.) was 13%. For the same molecule, the activity at 10 µg/mL ([2]; Bos taurus, 6 h, read-out: Lactic Acid Accumulation (% of Control), Table 2, 10 μg/ml, 6 h, 39° C.) was 13%, the activity at 0.31 µg/mL [2, 10] was 71% and the activity at 0.62 µg/mL ([2]; Bos taurus, 6 h, read-out: Lactic Acid Accumulation (% of Control), Table 2, .62 μg/ml, 6 h, 39° C.) was 30%. For the same molecule, the “inhibition of lactic acid production/accumulation” value [2, 9] was “surprisingly increased potency”.
